For the assay, the system named is Wistar rats. Kind of assay: formalin model of inflammatory pain. The assay is classed as in vivo. The following applies: 100 mg/paw subcutaneous, 5 minutes before formalin.

On to `O=C(c1ccccc1)c1ccc2n1CCC2C(=O)O` (stereo not shown) [Ketorolac, ketorolac], for which the “reduction of inflammatory pain (nociceptive response)” value is roughly 50%.

The values above are taken from patent US20180110803A1, “Neutral Electrolyzed Water and Uses Thereof” (priority 2016, published 2018).
